A word on the IC50: it is the concentration that inhibits the measured activity by half.

Experiment [1] deals with T1, human androgen receptor (AR) binding to flARE (Homo sapiens, UniProt P10275).
T1 construct: AR assays contained 1 nM flcARE and 50 nM full-length wild-type AR; FLAG; made in house
T1 sequence (P10275 1-920): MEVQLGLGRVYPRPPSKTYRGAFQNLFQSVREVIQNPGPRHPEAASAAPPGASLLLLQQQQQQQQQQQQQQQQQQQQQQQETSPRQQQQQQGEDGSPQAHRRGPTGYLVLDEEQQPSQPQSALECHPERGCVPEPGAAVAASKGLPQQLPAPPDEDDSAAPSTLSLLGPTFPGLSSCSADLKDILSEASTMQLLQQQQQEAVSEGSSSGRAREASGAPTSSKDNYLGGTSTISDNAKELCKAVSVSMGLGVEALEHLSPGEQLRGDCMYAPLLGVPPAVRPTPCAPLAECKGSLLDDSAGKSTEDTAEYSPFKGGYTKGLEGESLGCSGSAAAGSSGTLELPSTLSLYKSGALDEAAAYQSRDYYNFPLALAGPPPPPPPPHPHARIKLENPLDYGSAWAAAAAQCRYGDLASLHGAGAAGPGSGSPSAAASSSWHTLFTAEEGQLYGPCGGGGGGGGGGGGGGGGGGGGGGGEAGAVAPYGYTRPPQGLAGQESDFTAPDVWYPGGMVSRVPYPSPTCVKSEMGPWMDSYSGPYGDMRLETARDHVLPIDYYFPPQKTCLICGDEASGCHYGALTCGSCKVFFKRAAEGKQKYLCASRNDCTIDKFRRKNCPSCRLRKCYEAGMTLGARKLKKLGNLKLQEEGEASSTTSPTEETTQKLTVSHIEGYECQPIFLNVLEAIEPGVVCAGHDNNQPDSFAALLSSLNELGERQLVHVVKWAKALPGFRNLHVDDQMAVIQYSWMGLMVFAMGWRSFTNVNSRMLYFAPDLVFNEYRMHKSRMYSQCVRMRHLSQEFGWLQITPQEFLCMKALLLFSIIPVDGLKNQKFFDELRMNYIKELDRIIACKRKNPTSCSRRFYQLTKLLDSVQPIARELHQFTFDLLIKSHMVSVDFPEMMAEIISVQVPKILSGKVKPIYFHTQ
As to the kind of experiment: FAMA: inhibition of AR binding to flcARE. As to conditions: binding to HRE, 5 concentrations 0.5-10 μM, sequential method. The method, then:
(§1) Dose response curves for selected compounds were carried out as described for the HTS screen except that each well contained the indicated concentration of test compound. PR assays were carried out in the same buffer used for ERα assays and contained 1 nM flcPRE and 11 nM PR-B and 100 nM progesterone. The buffer used for AR was similar but also contained 5 μM ZnCl, 5 mM NaF, 0.6 μM CHAPS and 100 nM dihydrotestosterone. AR assays contained 1 nM flcARE and 50 nM full-length wild-type AR.
(§2) Specificity was evaluated in dose-response studies by quantitative FAMA using purified full-length human PR binding to a fluorescein-labeled progesterone/glucocorticoid response element (flPRE) and full-length human androgen receptor (AR) binding to a fluorescein-labeled androgen response element (flARE).

For experiment [2], the target named is T2, human ERα binding to flcERE (Homo sapiens, UniProt P03372).
T2 construct: Full-length FLAG-tagged human ERα was expressed and purified as described previously (27); FLAG; made in house
T2 sequence (P03372 1-595): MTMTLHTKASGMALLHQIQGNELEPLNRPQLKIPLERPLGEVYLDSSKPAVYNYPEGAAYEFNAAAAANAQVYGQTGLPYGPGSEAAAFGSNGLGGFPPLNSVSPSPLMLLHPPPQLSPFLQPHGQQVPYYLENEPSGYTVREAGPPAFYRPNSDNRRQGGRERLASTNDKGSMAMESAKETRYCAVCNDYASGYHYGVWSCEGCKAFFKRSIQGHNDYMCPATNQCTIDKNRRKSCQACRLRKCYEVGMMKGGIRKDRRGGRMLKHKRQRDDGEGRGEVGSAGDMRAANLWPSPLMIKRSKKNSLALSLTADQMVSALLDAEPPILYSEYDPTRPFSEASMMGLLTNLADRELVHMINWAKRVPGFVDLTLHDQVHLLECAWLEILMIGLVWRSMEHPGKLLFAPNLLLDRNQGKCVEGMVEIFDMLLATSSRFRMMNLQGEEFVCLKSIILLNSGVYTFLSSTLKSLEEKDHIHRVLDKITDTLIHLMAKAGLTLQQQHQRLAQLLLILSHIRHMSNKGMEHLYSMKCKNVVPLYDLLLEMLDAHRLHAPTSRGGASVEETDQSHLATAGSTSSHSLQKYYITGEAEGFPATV
As to the kind of experiment: FAMA: inhibition of ERα binding to flcERE. To be noted: FAMA, binding to HRE, 5 concentrations 0.5-10 μM, sequential method; read-out: IC50 ERα. Here is the method:
Prior to screening, the 10 mM library stocks were diluted to produce replica libraries in 384-well plates containing each small molecule at 0.25 mM (in DMSO). In our initial studies we were concerned that forming the flcERE-ERα complex first and then adding the candidate small molecule inhibitors would miss small molecules that bind at the interface. We therefore screened using the “sequential” method in which the candidate small molecules were first incubated with ERα and followed by addition of the flcERE. The assay for binding of ERα to the flcERE is a modification of our earlier assay (27). Assays were carried out at room temperature in black wall 384-well microplates (Greiner/Bio-One) in a total volume of 10 μl in buffer containing 20 mM Tris pH 7.5, 10% glycerol, 0.2 mM EDTA, 2 mM DTT, 100 mM KCl, 0.5 ng/μl poly dl:dC, […] bovine serum albumin and 100 nM 17β-estradiol (E2). For high throughput screening, a master mix without ERα and probe was prepared at 4° C. The master mix was divided into 2 parts. ERα was added to one part to 5 nM in the final assays. 7 μl of the ERα-containing mix was then dispensed into each well of a 384-well plate on ice. 100 nl of the compounds being tested was then added using a pin-transporter (V & P Scientific, Inc, CA) to a final concentration of 2.5 μM. The samples were mixed using the pin-transporter and sedimented by centrifugation for 2 min. at 4° C. and incubated on ice for 10 min. The flcERE probe was added to the other aliquot of the mix to 1 nM. 3 μl of the mix containing the flcERE probe was added to each well containing ERα and the test compound. The samples were mixed using the pin-transporter, the plates were briefly centrifuged and incubated at room temperature for 10 min. and fluorescence anisotropy (FA) was measured using a BMG PheraStar (BMG Labtech) microplate reader (module: 485 520) with excitation at 485λ and emission at 520λ. To identify small molecules that were highly fluorescent, or quench fluorescence, fluorescence intensity was also measured.
as §1

Experiment [3] concerns the target T3, human PR-B binding to flPRE (Homo sapiens, UniProt P06401).
T3 construct: FLAG; made in house
T3 sequence (P06401 1-933): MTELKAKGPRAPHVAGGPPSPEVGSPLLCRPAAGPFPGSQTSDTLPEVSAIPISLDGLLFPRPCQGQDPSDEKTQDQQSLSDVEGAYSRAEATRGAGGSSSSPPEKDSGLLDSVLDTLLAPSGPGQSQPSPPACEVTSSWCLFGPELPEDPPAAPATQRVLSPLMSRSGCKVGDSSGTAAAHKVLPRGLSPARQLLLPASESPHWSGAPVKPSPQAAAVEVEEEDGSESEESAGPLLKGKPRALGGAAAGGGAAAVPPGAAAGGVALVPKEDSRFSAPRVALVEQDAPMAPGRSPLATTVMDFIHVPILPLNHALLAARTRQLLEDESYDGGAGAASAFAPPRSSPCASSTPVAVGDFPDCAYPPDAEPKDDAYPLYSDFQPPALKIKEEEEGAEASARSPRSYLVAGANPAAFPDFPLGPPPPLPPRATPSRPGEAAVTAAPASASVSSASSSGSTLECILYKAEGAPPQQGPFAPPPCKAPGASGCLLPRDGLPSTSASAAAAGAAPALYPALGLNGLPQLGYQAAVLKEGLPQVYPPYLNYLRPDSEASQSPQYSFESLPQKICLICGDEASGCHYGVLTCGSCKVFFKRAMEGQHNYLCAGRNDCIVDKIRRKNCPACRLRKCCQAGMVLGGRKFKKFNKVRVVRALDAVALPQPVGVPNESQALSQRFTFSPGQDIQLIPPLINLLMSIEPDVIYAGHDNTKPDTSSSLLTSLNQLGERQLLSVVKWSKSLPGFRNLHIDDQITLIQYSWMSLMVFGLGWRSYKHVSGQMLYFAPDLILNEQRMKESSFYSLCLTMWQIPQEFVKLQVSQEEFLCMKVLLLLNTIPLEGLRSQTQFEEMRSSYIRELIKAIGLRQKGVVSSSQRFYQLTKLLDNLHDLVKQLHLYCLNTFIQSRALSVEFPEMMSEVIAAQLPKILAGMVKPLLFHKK
Description: FAMA: inhibition of PR binding to flcPRE. To be noted: binding to HRE, 5 concentrations 0.5-10 μM, sequential method. The method, then: as §1, §2

Take `O=C(OC1C2COC(O2)C(OC(=O)c2ccccc2)C1OC(=O)c1ccccc1)c1ccccc1` (stereo not shown) [Compound 1387]: the IC50 in experiment [1] turned out to be 4.8 µM; in experiment [2], 4.5 µM; in experiment [3] it was 6.5 µM.
In the same order, the values of `CN(C)c1ncnc2c1cnn2-c1ccc(Cl)cc1` [Compound 1445] are 0.7 µM, 0.6 µM and 1.2 µM.
For `CC1CCCCN1.CC1CCCCN1.[Cl][Cu][Cl]` (stereo not shown) [Compound 1826] the same measures were 8 µM, 7 µM and 6 µM.
For `O=C(O)/C=C/c1ccc([N+](=O)[O-])cc1` [Compound 2067], the concentration for half-maximal inhibition (IC50) is 3 µM in experiment [1] and 5 µM in experiment [2].
With `NNC(=O)OCc1ccccc1` [Compound 2287], the concentration for half-maximal inhibition (IC50) amounted to 1.7 µM in experiment [1], 2.1 µM in experiment [2] and 2.7 µM in experiment [3].
For `CCNc1ccc(-c2ccc(NCC)cc2)cc1` [Compound 2674] the same measures were 5.8 µM, 5.5 µM and 6.2 µM.
As to `CCCCC(C)O` (stereo not shown) [Compound 3706], the half-maximal inhibitory concentration (IC50) in experiment [1] was found to be 1 µM; in experiment [2], 0.8 µM; in experiment [3], 1.5 µM.
As to `CCCCCCCC(=O)OC` [Compound 3710], the figures for the IC50 in experiment [2] and in experiment [3] were 2.5 µM and 2.9 µM, respectively.
Regarding `CCCCCCCCCC(=O)OC` [Compound 3713], in experiment [3], the IC50 amounted to 7 µM.
As to `CNc1ccccc1O` [Compound 3879], the half-maximal inhibitory concentration (IC50) in experiment [1] was 7.5 µM; in experiment [2] it was 3.7 µM; in experiment [3], 6.5 µM.
In the same order, the values of `Brc1cccs1` [Compound 4456] are > 10 µM, 7.5 µM and > 10 µM.
In the same order, the values of `CCOC(=O)C(CC)(C(=O)OCC)C(C)C` [Compound 4695] are 4.8 µM, 2.5 µM and 4 µM.
For `CCCN(C(C)=O)c1ccccc1` [Compound 4700] the same measures were 2 µM, 2 µM and 2.7 µM.
For `O=C(O)/C=C/c1ccccc1Cl` [Compound 4792], the half-inhibitory concentration (IC50) in experiment [1] is 7.5 µM; in experiment [2] it was > 10 µM; in experiment [3] it was > 10 µM.
Consider `CC(C)CCOC(=S)S` [Compound 4864], for which the half-maximal inhibitory concentration (IC50) in experiment [1] is 6.5 µM; in experiment [2], 8 µM; in experiment [3], 8.8 µM.
In the same order, the values of `CCCCCCCCCCCCCCCC[N+](C)(C)CCN(Cc1ccc(OC)cc1)c1ncccn1` [Compound 5648] are 4.5 µM, 6.5 µM and 7.3 µM.
In the same order, the values of `O=[N+]([O-])/C=C/c1ccco1` [Compound 5650] are 5.5 µM, 8 µM and 7.5 µM.
As for `CCC1CCC(C)NC1` (stereo not shown) [Compound 6119], the IC50 in experiment [1] stood at 7.4 µM; in experiment [2], 9 µM; in experiment [3] it was 9 µM.
Take `CC(C)/C=N/Nc1ccc([N+](=O)[O-])cc1[N+](=O)[O-]` [Compound 6122]: the half-maximal inhibitory concentration (IC50) in experiment [1] amounted to 3.7 µM; in experiment [2] it was 5.8 µM; in experiment [3], 5.3 µM.
Turning to `O=[N+]([O-])c1ccc(CO)o1` [Compound 6454], the values for the 50% inhibitory concentration (IC50) in experiment [1] and in experiment [2] were > 10 µM and 5.8 µM, respectively.
Regarding `CC(=O)N(C)c1ccc(N)cc1` [Compound 7107], the IC50 in experiment [2] was 5 µM; in experiment [3], > 10 µM.
For `O=C(CCBr)OCCc1ccccc1` [Compound 7122], the half-inhibitory concentration (IC50) in experiment [1] came to 7.5 µM; in experiment [2] it was 5 µM.
With `CCN(CC)CCOC(=O)c1cc(Br)cc(-c2ccccc2)c1O` [Compound 7450], the half-inhibitory concentration (IC50) in experiment [1] is > 10 µM; in experiment [2] it was 9.8 µM; in experiment [3] it was > 10 µM.
`Nc1ccc(S(=O)(=O)c2ccc(NCN3C(=O)NC(=O)C(=O)C3=O)cc2)cc1` [Compound 34238]: the IC50 was 1.8 µM in experiment [2] and > 10 µM in experiment [3].
As for `C=C(CC(=O)O)C(=O)O.C=CC(=O)O` [Compound 146443], the IC50 in experiment [3] stood at 0.4 µM.
With `CCc1c(O)c2c(c(O)c1C(C)=O)C(=O)c1c(cc(O)c(C(=O)O)c1C(=O)O)C2=O` [Compound 170008], the IC50 in experiment [1] and in experiment [2] was 9 µM each time.

The values are drawn from patent US8871751B2, “Compositions and methods relating to nuclear hormone and steroid hormone receptors including inhibitors of estrogen receptor alpha-mediated gene expression and inhibition of breast cancer” (The Board of Trustees of the University of Illinois, priority 2008, dated 2014).
